Values after ≈ are worked out from the molar mass of the structure shown. Values joined by “and” are separate entries in the source; they are usually repeats but may differ in a detail not shown here. Equal entries are not always repeated. Where two headings read alike, the source gives them in different places.
How the values were obtained:
[1] = target: ACC1 (Homo sapiens, UniProt Q13085); assay: In vitro ACC1 inhibition assay (ADP-Glo); assay type: biochemical; details: read-out: ACC1
Method in brief: (§1)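 Enzyme (human ACC1 or ACC2) and compound, serially diluted 1:3 over 11 points from a 600 uM DMSO stock, were preincubated 15 min before substrate addition.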

[2] = system: target protein (ACC); assay: Thermal Shift Assay (TSA); assay type: binding; details: FIG. 2
From the text: 103, 43, 15835-15840, the entirety of which is incorporated herein by reference.

[3] = target: ACC2 (Homo sapiens, UniProt O00763); assay: In vitro ACC2 inhibition assay (ADP-Glo); assay type: biochemical; details: read-out: ACC2
ACC2, sequence (O00763 whole entry, species assumed): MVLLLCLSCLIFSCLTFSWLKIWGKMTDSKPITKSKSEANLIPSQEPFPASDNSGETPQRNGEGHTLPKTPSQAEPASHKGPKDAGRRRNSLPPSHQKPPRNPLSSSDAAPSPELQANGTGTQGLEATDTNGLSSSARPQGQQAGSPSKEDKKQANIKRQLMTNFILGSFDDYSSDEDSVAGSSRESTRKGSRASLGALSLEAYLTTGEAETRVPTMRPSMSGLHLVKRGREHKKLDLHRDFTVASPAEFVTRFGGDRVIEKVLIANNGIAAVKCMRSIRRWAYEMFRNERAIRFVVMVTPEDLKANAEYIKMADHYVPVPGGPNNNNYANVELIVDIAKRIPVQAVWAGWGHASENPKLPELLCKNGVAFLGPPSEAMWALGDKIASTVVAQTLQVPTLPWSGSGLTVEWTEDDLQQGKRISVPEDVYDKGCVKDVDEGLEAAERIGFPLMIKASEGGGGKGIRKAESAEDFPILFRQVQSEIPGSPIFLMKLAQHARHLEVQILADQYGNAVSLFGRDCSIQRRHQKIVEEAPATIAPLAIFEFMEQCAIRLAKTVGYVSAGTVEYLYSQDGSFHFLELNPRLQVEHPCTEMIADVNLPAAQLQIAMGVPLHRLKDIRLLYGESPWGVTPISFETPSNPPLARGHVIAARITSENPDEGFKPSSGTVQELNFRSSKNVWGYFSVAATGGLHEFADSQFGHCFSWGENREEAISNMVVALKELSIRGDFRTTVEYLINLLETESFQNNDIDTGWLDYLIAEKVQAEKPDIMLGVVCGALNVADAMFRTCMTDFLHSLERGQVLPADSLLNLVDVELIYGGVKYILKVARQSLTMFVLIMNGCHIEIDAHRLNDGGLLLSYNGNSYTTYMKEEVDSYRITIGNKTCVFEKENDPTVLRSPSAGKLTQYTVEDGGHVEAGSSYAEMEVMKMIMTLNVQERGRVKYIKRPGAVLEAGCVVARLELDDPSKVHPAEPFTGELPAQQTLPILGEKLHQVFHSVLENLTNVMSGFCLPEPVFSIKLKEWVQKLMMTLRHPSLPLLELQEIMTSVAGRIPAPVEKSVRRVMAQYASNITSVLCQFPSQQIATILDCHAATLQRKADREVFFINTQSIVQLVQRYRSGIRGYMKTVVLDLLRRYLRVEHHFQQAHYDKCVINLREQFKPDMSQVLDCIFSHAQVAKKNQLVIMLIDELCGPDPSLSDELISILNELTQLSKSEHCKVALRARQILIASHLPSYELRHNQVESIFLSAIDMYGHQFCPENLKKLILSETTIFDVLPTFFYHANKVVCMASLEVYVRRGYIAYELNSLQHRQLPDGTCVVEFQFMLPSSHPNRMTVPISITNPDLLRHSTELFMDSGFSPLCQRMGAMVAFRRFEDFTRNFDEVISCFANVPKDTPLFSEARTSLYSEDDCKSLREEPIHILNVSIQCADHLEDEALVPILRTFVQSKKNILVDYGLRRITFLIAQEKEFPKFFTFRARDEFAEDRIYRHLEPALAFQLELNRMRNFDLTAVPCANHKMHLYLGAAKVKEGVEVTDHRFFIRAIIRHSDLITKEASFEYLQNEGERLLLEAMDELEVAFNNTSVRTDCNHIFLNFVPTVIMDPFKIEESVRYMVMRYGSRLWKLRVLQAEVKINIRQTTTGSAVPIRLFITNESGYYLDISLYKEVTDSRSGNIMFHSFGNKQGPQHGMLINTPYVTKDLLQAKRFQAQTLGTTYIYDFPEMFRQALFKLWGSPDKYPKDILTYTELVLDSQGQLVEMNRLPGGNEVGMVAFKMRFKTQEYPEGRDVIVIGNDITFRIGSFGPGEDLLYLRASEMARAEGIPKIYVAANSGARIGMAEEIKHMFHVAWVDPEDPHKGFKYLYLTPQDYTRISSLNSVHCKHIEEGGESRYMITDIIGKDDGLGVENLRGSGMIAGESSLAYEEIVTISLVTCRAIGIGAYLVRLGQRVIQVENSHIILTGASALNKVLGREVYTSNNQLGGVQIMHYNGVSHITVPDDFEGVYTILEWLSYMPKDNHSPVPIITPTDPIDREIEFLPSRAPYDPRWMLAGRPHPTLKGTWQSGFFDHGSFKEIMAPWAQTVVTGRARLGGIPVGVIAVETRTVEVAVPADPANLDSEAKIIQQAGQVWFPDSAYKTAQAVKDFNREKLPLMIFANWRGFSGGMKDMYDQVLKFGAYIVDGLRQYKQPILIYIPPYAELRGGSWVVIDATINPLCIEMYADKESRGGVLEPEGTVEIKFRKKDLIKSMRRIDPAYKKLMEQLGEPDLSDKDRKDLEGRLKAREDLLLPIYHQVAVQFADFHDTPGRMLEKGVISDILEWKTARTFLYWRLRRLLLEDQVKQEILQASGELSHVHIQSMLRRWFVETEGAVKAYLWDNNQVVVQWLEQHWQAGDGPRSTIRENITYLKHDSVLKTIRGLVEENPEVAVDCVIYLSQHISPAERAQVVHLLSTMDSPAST
Method in brief: as §1

[4] = system: C. albicans ATCC 90028; assay: Anti-Fungal Activity Assay (broth microtiter MIC); assay type: cell-based; details: 3 replicates, test compounds read at 48 h
Protocol: (§2) Compounds of the present invention were evaluated in an Anti-Fungal Activity Assay. An exemplary procedure for the assay, which measures the susceptibility of various Candida species to anti-fungal compounds, follows. Compounds to be tested (including fluconazole and amphotericin B) were dissolved in DMSO to obtain a solution having a concentration of 1 mg/mL. […] All species were grown from frozen stock by directly plating on to freshly prepared Sabouraud Dextrose agar (BD, Difco) and incubated overnight in ambient air at 35° C. for 24 h. A direct suspension was prepared in RPMI 1640+MOPS (Lonza, Biowhittaker) by taking individual colonies from the overnight cultures using sterile swabs soaked in sterile saline. The concentration of the suspension was determined using pre-determined standard curves. […] The original CLSI guidelines focused on reading Candida MICs after 48 h of incubation. As reading after only 24 h offers a clear advantage of patient care, QC limits are being established for all drugs at 24 h. That being said there are no known interpretive breakpoints for amphotericin B at 24 h and the current fluconazole interpretive breakpoints are based on a 48 h reading. The MIC breakpoints for the Pharmaron test compounds were recorded at 48 h, and for the soraphen the 24 h time-point was added. All MIC determinations were achieved by visually comparing the growth found in the antibiotic challenged wells to that of the growth control.

[5] = system: C. krusei ATCC 6258; assay: Anti-Fungal Activity Assay (broth microtiter MIC); assay type: cell-based; details: 3 replicates, test compounds read at 48 h
Protocol: as §2

[6] = system: C. parapsilosis ATCC 22019; assay: Anti-Fungal Activity Assay (broth microtiter MIC); assay type: cell-based; details: 3 replicates, test compounds read at 48 h
Protocol: as §2

[7] = system: Candida species; assay: Anti-Fungal Activity Assay, summary over Candida species; assay type: cell-based; details: summary of Table 3
Protocol: as §2

[8] = Candida albicans, ATCC90028, 48 h, read-out: MIC
[9] = Pichia kudriavzevii, ATCC6258, 48 h, read-out: MIC
[10] = Lodderomyces parapsilosis, ATCC22019, 48 h, read-out: MIC

IC50 [1] [nM] | IC50 [3] [nM] | MIC [4] [µg/mL] | MIC [4, 8] [µg/mL] | MIC [5] | MIC [5, 9] [µg/mL] | MIC [6] [µg/mL] | MIC [6, 10] [µg/mL] | anti-fungal activity MICs [7] | SMILES | thermal melting point change [2]
< 100 | < 1000 | – | – | – | – | – | – | – | CCOC(=O)c1sc2c(c1C)c(=O)n(CC(=O)O)c(=O)n2CC(OC(C)C)c1ccccc1 (stereo in doubt) [I-97, (R)-2-(6-(ethoxycarbonyl)-1-(2-isopropoxy-2-phenylethyl)-5-methyl-2,4-dioxo-1,2-dihydrothieno[2,3-d]pyrimidin-3(4H)-yl)acetic acid] | more than 14 ′C
– | < 1000 | 8 (≈ 15.2 µM) | 8 (≈ 15.2 µM) | 16 µg/mL and 32 µg/mL | 16 (≈ 30.3 µM) | >64 | > 64 | low ug/mL range | COc1ccccc1[C@H](Cn1c(=O)n(C(C)(C)C(=O)O)c(=O)c2c(C)c(-c3ncco3)sc21)OC(C)C [I-159, 2-[1-[(2R)-2-(2-methoxyphenyl)-2-(propan-2-yloxy)ethyl]-5-methyl-6-(1,3-oxazol-2-yl)-2,4-dioxo-1H,2H,3H,4H-thieno[2,3-d]pyrimidin-3-yl]-2-methylpropanoic acid] | –
< 100 | < 100 | >64 | > 64 | >64 µg/mL | > 64 | >64 | > 64 | – | Cc1c(-c2ncco2)sc2c1c(=O)n(C(C)(C)C(=O)O)c(=O)n2C[C@H](Oc1ccc(-n2ccnc2)cc1)c1ccccc1 [I-160, 2-[1-[(2R)-2-[4-(1H-imidazol-1-yl)phenoxy]-2-phenylethyl]-5-methyl-6-(1,3-oxazol-2-yl)-2,4-dioxo-1H,2H,3H,4H-thieno[2,3-d]pyrimidin-3-yl]-2-methylpropanoic acid] | –
< 100 | < 1000 | >64 | > 64 | >64 µg/mL | > 64 | >64 | > 64 | – | Cc1c(-c2ncco2)sc2c1c(=O)n(C(C)(C)C(=O)O)c(=O)n2C[C@H](OC1CCOCC1)c1ccccc1 [I-162, 2-methyl-2-[5-methyl-1-[(2R)-2-(oxan-4-yloxy)-2-phenylethyl]-6-(1,3-oxazol-2-yl)-2,4-dioxo-1H,2H,3H,4H-thieno[2,3-d]pyrimidin-3-yl]propanoic acid] | –
< 100 | < 100 | >64 | > 64 | >64 µg/mL | > 64 | >64 | > 64 | – | Cc1c(-c2ncco2)sc2c1c(=O)n(C(C)(C)C(=O)O)c(=O)n2C[C@H](O[C@H]1CC[C@H](O)CC1)c1ccccc1 [I-165, 2-[1-[(2R)-2-[(4-hydroxycyclohexyl)oxy]-2-phenylethyl]-5-methyl-6-(1,3-oxazol-2-yl)-2,4-dioxo-1H,2H,3H,4H-thieno[2,3-d]pyrimidin-3-yl]-2-methylpropanoic acid] | –
< 100 | < 100 | 8 (≈ 13.4 µM) | 8 (≈ 13.4 µM) | 8 µg/mL (≈ 13.4 µM) | 8 (≈ 13.4 µM) | 8 (≈ 13.4 µM) | 8 (≈ 13.4 µM) | low ug/mL range | COc1ccccc1[C@H](Cn1c(=O)n(C(C)(C)C(=O)N2CCOCC2)c(=O)c2c(C)c(-c3ncco3)sc21)OC(C)C [I-235, 1-[(2R)-2-(2-methoxyphenyl)-2-(propan-2-yloxy)ethyl]-5-methyl-3-[2-methyl-1-(morpholin-4-yl)-1-oxopropan-2-yl]-6-(1,3-oxazol-2-yl)-1H,2H,3H,4H-thieno[2,3-d]pyrimidine-2,4-dione] | –
< 100 | < 100 | 8 (≈ 14.4 µM) | 8 (≈ 14.4 µM) | 4 µg/mL (≈ 7.21 µM) | 8 (≈ 14.4 µM) | 2 (≈ 3.61 µM) | 2 (≈ 3.61 µM) | low ug/mL range | CCNC(=O)C(C)(C)n1c(=O)c2c(C)c(-c3ncco3)sc2n(C[C@H](OC(C)C)c2ccccc2OC)c1=O [I-236, N-ethyl-2-[1-[(2R)-2-(2-methoxyphenyl)-2-(propan-2-yloxy)ethyl]-5-methyl-6-(1,3-oxazol-2-yl)-2,4-dioxo-1H,2H,3H,4H-thieno[2,3-d]pyrimidin-3-yl]-2-methylpropanamide] | –

SMILES | IC50 [1] [nM] | IC50 [3] [nM] | MIC [4] [µg/mL] | MIC [4, 8] [µg/mL] | MIC [5] | MIC [5, 9] [µg/mL] | MIC [6] [µg/mL] | MIC [6, 10] [µg/mL] | anti-fungal activity MICs [7] | thermal melting point change [2]
COc1ccccc1[C@H](Cn1c(=O)n(C(C)(C)C(N)=O)c(=O)c2c(C)c(-c3ncco3)sc21)OC1CCOCC1 [I-246, 2-[1-[(2R)-2-(2-methoxyphenyl)-2-(oxan-4-yloxy)ethyl]-5-methyl-6-(1,3-oxazol-2-yl)-2,4-dioxo-1H,2H,3H,4H-thieno[2,3-d]pyrimidin-3-yl]-2-methylpropanamide] | – | – | 4 (≈ 7.03 µM) | 4 (≈ 7.03 µM) | 16 µg/mL (≈ 28.1 µM) | 16 (≈ 28.1 µM) | 4 (≈ 7.03 µM) | 4 (≈ 7.03 µM) | low ug/mL range | –

From patent US9453026B2, “ACC inhibitors and uses thereof” (Gilead Apollo, Inc., priority 2011, dated 2016)
